The EC50 is the concentration at which the effect is half-maximal.

Several values for one entry are separate records, joined by “and”; a condition that tells them apart may be missing. Identical values can stand only once. A value given as a limit tells only on which side of the number the result lay.

For this test, the system named is THP-1 viability, CellTiter-Glo luminescence, 72 h. Description: PubChem AID 2252.
Turning to `CC(C)NC(=O)Nc1ccc(Br)cc1Cl`, the EC50 was < 0.1 µM. The figure for `CCOc1ccc(-c2cc(C)[n+](CCN(CC)CC)c(-c3ccc(OCC)cc3)c2)cc1` is 4.37 µM.

Consider `C#CCOCCOCCOCCNc1nc(N2CCN(C(=O)CCCCCCCCCCNC(=O)[C@H]([C@@H](C)CC)n3cc(CCCCCN)nn3)CC2)nc(N2CCN(C(=O)CCCCCCCCCCNC(=O)[C@@H]([C@H](C)O)n3cc(C)nn3)CC2)n1`, for which the EC50 is 13 µM. As for `O=C(/C=C/c1ccco1)NC(=S)NNC(=O)c1ccco1`, the EC50 is 32.3 µM. Under `Cn1ncnc2c(=O)n(C)c(=O)nc1-2` stands 1.38 µM; under `Cc1nc2ccccc2c(N)c1C(=O)/C=C/c1ccccc1`, 3.11 µM; under `COC(=O)c1ccc(CSc2ccc3nnc(-c4ccc(OC)c(OC)c4)n3n2)o1`, 10.3 µM. `COc1ccc(CNCCc2ccc(Cl)cc2)cc1OCc1ccccc1`: the EC50 is 24.5 µM.

As to `Cc1ccc(-n2c(Cc3noc4ccccc34)n[nH]c2=S)cc1`, the EC50 is < 0.1 µM.

As to `Oc1cc(Cl)ccc1Oc1ccc(Cl)cc1Cl`, the EC50 was 28.6 µM. Under `CC1CCN(CCOCCOc2ccc(Br)cc2Cl)CC1` stands 32.9 µM; under `CCCCCCCSc1cc(OC)c(CCNC)cc1OC`, 10.2 µM. With `C#CCOCCOCCOCCNc1nc(N2CCN(C(=O)CCCCCCCCCCNC(=O)Cn3cc(CCCCCN)nn3)CC2)nc(N2CCN(C(=O)CCCCCCCCCCNC(=O)[C@H]([C@@H](C)CC)n3cc(CCCCCN)nn3)CC2)n1`, the EC50 was 14.5 µM.

Turning to `O=[N+]([O-])c1cc(F)c2cccnc2c1O`, the EC50 is 22.9 µM. The figure for `O=C(NC(=S)NNC(=O)c1cccs1)c1ccc(Br)o1` is 27.5 µM. The figure for `CCN(CC)c1ccc(/C=N/NC(=O)c2ccc3nc[nH]c3c2)c(O)c1` is 0.9 µM; for `NC1=NC[C@@H](Cc2ccc(O)cc2)N1CCCCC1CCCCC1` it is 6.98 µM; for `NC(=O)c1ccsc1NC(=O)c1ccc2c(c1)CCCC2` it is 40.4 µM.

With `CCc1ccc(N2CC(C(=O)N/N=C/c3cc([N+](=O)[O-])ccc3O)CC2=O)cc1` (configuration not stated), the EC50 was 11.3 µM.

For the compound `OCCCNc1c2ccccc2nc2ccccc12`, the half-maximal effective concentration (EC50) was 2.13 µM. Consider `O=C(/C=C/c1ccccc1Cl)c1ccccc(=O)c1O`, for which the EC50 was 12.9 µM.

Take `COC(=O)C1C(O)C(C)C(O)C(C)/C=C\C=C(/C)C(=O)Nc2c(C)c(OC(C)=O)c3c(c2O)C(=O)C(C)=C2OCOC(=C23)/C(C)=C/C(C)(O)C(O)C(C)C1O` (configuration not stated): the EC50 was < 0.1 µM. Under `Cc1ccc(S(=O)(=O)CCC(=O)c2ccc(O)cc2O)cc1` stands 16 µM; under `Cc1ccc(C(=O)N/C(=C\c2ccc(-c3ccc(Br)cc3)o2)C(=O)NCCCN(C)C)cc1`, 4.18 µM; under `Cc1oc2c(O)c(O)ccc2c(=O)c1-c1ccccc1`, 24.9 µM.

On to `COc1ccc(C(=O)NC(=S)NNC(=O)c2cnccn2)cc1`, for which the EC50 is 2.98 µM. Under `Cc1ccc(C(OCC(O)CNCc2ccc(F)cc2)c2ccccc2)cc1` (configuration not stated) stands 13 µM. In the case of `CCCCCCCCCCCCCCCC[N+](C)(C)CC`, the EC50 is 0.48 µM. Under `O=C(/C=C/c1ccccc1)c1cc(Br)ccc(=O)c1O` stands 10.5 µM; under `CCOC(=O)c1ccccc1-n1c(C)cc(C2N=C(N)Nc3nc4ccccc4n32)c1C` (configuration not stated), 6.21 µM. The figure for `O=[N+]([O-])c1ccc(/C=N/NC(=S)Nc2ccc(Cl)cc2Cl)s1` is 47.5 µM; for `O=C(Cn1nc(CNc2ccc(Cl)cc2)[n+]2c1CCCCC2)c1ccc(Br)cc1` it is 11.2 µM. For `COc1ccc(C(=O)NC(=S)NNC(=O)c2cccnc2)cc1`, the EC50 is 21.4 µM. Take `CN(C)CCCN(C(=O)CCc1ccccc1)c1nc2ccc(Br)cc2s1`: the half-maximal effective concentration (EC50) was 13.4 µM.

Consider `O=C(CN1C2=NCCN2c2ccccc21)c1ccco1`, for which the EC50 was < 0.1 µM.

On to `Oc1cccc2ccc(Nc3ccccn3)nc12`, for which the EC50 is 1.75 µM.

Take `Oc1c(I)cc(Cl)c2cccnc12`: the EC50 was 14.7 µM. The figure for `COc1ccc(N=CC2=C(Nc3ccc(OC)cc3)c3c(C)nn(-c4ccccn4)c3CC2)cc1` is 2.16 µM; for `O=C1c2ccc3c4c(ccc(c24)C(=O)N1c1cccc(O)c1)C(=O)N(c1cccc(O)c1)C3=O` it is 2.74 µM. The figure for `COc1ccc(C(=O)C[n+]2cc(Br)cc3ccccc32)cc1[N+](=O)[O-]` is < 0.1 µM; for `N#C/C(=C\c1ccc(O)c(O)c1)C(=O)NCc1ccccc1` it is 27.1 µM. Under `COc1ccc(NC(=O)CC2Sc3ncnn3C2=O)cc1` (configuration not stated) stands 46.5 µM. On to `CN(C)CCCN(C(=O)c1cc2cc([N+](=O)[O-])ccc2s1)c1nc2cc3c(cc2s1)OCCO3`, for which the EC50 is 3.04 µM. Regarding `O=C(NNC(=S)NC(=O)c1ccco1)c1ccc(F)cc1`, the EC50 is 9.47 µM. The figure for `CC[C@H]1OC(=O)C[C@@H](O)[C@H](C)[C@@H](O[C@@H]2O[C@H](C)C[C@H](N(C)C)[C@H]2O)[C@@H](CC=O)C[C@@H](C)C(=O)C=C[C@]2(C)O[C@H]2[C@@H]1C` is 12.2 µM; for `CCN(CC)CCNc1nc(-c2ccc(OC)cc2)c(-c2ccc(OC)cc2)s1` it is 22.3 µM; for `CCOC(=O)c1c(C)sc2c1N(C(C)=O)c1cc(Cl)ccc1S2` it is 44.1 µM. `CN1CCN(c2ccc(NC(=O)c3ccc(-c4ccc(Br)cc4)o3)cc2)CC1`: the EC50 is 7.84 µM. As for `O=C(N/N=C/c1cc([N+](=O)[O-])ccc1O)C1CC1`, the EC50 was 27.7 µM. Regarding `OC(CNCC1CCCO1)Cn1c2ccc(Cl)cc2c2cc(Cl)ccc21` (configuration not stated), the EC50 was 12.9 µM. On to `CCCCC(CC)CN=C(N)NC(N)=NCCCCCCN=C(N)NC(N)=NCC(CC)CCCC` (configuration not stated), for which the concentration for a half-maximal effect (EC50) was 0.83 µM. The figure for `Nc1nc(F)nc2c1ncn2[C@@H]1O[C@H](CO)[C@@H](O)[C@H]1O` is 0.35 µM; for `CN1CCN(CCCN2c3ccccc3Sc3ccc(C(F)(F)F)cc32)CC1` it is 10.3 µM; for `Cc1ccccc1-n1ncc2c([N+](=O)[O-])cc([N+](=O)[O-])cc21` it is 26.6 µM.

Regarding `c1cnc2c(c1)ccc1cccnc12`, the EC50 is 3.14 µM and 2.97 µM. The figure for `CCc1nnc(NS(=O)(=O)c2ccc(N=Cc3c(C)[nH]n(-c4ccc(C)cc4)c3=O)cc2)s1` is 29.3 µM; for `Nc1nc(Nc2cccc(F)c2)nc2ccccc12` it is 8.85 µM. Under `CN1CCN(C2=Cc3ccccc3Sc3cc(F)ccc32)CC1` stands 8.09 µM; under `COc1cccc(F)c1C(C[N+](=O)[O-])c1c(N)n(C)c(=O)n(C)c1=O` (configuration not stated), 6.05 µM; under `O=[N+]([O-])c1ccc(O)c(/C=N/Nc2ccccn2)c1`, 0.42 µM. For `C#CC(=O)N(c1cccc(OC)c1)C(C(=O)NC1CCCC1)c1cccs1` (configuration not stated), the EC50 is 0.9 µM. Consider `O=C(N/N=C/c1cc(Cl)cc(Cl)c1O)c1ccncc1`, for which the concentration giving a half-maximal response (EC50) is 5.38 µM. Under `Cc1ccc(C(=O)NNC(=S)NC(=O)COc2ccccc2)cc1` stands 15.1 µM; under `Cc1[nH]nc2c1C(c1ccc(-c3ccccc3C#N)o1)C(C#N)=C(N)O2` (configuration not stated), 30.6 µM; under `O=C(N/N=C/c1ccccn1)c1cccs1`, 26.4 µM. On to `O=C(CC1NCCc2ccccc21)Nc1ccc(Oc2ccccc2)cc1` (configuration not stated), for which the EC50 was 14.3 µM. Under `CNC[C@H](CC1CCCCC1)NC[C@H](Cc1ccccc1)NCCC12CC3CC(CC(C3)C1)C2` stands 3.49 µM; under `O=C(CCN1Cc2ccccc2C1)c1ccc2c(c1)OCCO2`, 19 µM; under `CC(C)(C)c1ccc(OCCCCCCN2CCNCC2)cc1`, 13.8 µM. Turning to `CCOc1cccc(/C=N/NC(=O)c2cc(C3CC3)[nH]n2)c1O`, the EC50 is 5.46 µM. Under `CCN(CCC(=O)Nc1ccc(Br)c(C)c1)Cc1ccccc1` stands 13.8 µM; under `CN(C)c1ccc(/C=C/c2ccc3ccccc3[n+]2C)cc1`, 0.71 µM; under `CC(=O)NC(c1cccs1)c1cc([N+](=O)[O-])c2cccnc2c1O` (configuration not stated), 10.5 µM.

For `CCOC(=O)c1c(C)[nH]c(C(=O)CN2C(=O)NC(C)(c3ccc4ccccc4c3)C2=O)c1C` (configuration not stated), the EC50 is 39.1 µM. Under `Cc1cc([N+](=O)[O-])cc(/C=N\NC(=O)C2COc3ccccc3O2)c1O` (configuration not stated) stands 14.3 µM; under `COc1ccccc1Nc1nc(NCC2CCCO2)c2ccccc2n1` (configuration not stated), 14.1 µM. Under `O=C(/C=C/c1ccccc1)c1ccc(NC2=NCCCS2)cc1` stands 27.4 µM; under `C[C@H]1c2cccc(O)c2C(O)=C2C(=O)C3(O)C(O)=C(C(N)=O)C(=O)[C@@H](N(C)C)[C@@H]3[C@@H](O)[C@@H]21` (some centres not stated), 30.3 µM; under `Cc1cc(NC2CCCCC2)nc(NCc2ccccc2)n1`, 14.9 µM. The figure for `Cc1cccc(NC2=NC3(CCCCC3)N=C(N)N2)c1` is 34.2 µM. Consider `O=C(c1cccs1)c1no[n+]([O-])c1C(=O)c1cccs1`, for which the concentration for a half-maximal effect (EC50) is 1.89 µM. Under `COc1ccc(CNCCc2cccc(F)c2)c2ccccc12` stands 12.9 µM. The figure for `CCCCCCCCCCOC(=O)Cn1c(COc2ccc(OC)cc2)[n+](C)c2ccccc21` is 4.04 µM and 2.21 µM. As for `O=C(O)c1cn(C2CC2)c2cc(N3CCN(S(=O)(=O)c4ccc5c(c4)OCCO5)CC3)c(F)cc2c1=O`, the EC50 was < 0.1 µM. Under `CNCCCN1c2ccccc2CCc2ccccc21` stands 40.4 µM; under `CC(=O)NC(c1cccc([N+](=O)[O-])c1)c1ccc2cccnc2c1O` (configuration not stated), 0.47 µM.

On to `O=C(NCc1cccnc1)c1ccc(COc2ccc(Cl)cc2)cc1`, for which the concentration for a half-maximal effect (EC50) was 43.8 µM. The figure for `CC(C(=O)NC1C=CS(=O)(=O)C1)N1C(=O)/C(=C/c2ccc(Cl)cc2)SC1=S` (configuration not stated) is 25.7 µM.

Consider `COc1cccc(Nc2nc(NCCO)c3ccccc3n2)c1`, for which the EC50 is 2.26 µM.

For the compound `COc1ccc(Nc2nc(-c3ccccc3)nc3ccccc23)cc1S(=O)(=O)N1CCOCC1`, the EC50 is 39 µM.

With `NCCCC[C@H]1CN=C(N)N1CCC12CC3CC(CC(C3)C1)C2`, the EC50 is 49.4 µM. Under `COc1ccc(OC)c(S(=O)(=O)N2CCC(C(=O)NCc3ccccc3OC)CC2)c1` stands < 0.1 µM; under `O=C1C=C(Nc2ccccc2O)c2ccccc2C1=O`, 10.8 µM. The figure for `CCCCOc1ccc(C(=O)OC2CC(C)N(C)CC2C)cc1` (configuration not stated) is 30.7 µM. The figure for `CN(C)CC/C=C1\c2ccc(F)cc2Sc2cc(F)c(Cl)cc21` is 11.3 µM.

Consider `O=C(O)c1csc(-c2ccc(Cl)cc2)n1`, for which the EC50 was < 0.1 µM.

With `O=C(Nc1ccncc1)c1cc(-c2ccccn2)nc2ccccc12`, the EC50 was 23.7 µM.

Source of the values: PubChem BioAssay AID2252 (Southern Research Specialized Biocontainment Screening …, 2010).
